From article PMC4503722, “Novel Phenotypic Outcomes Identified for a Public Collection of Approved Drugs from a Publicly Accessible Panel of Assays” (PLoS ONE, 2015)
Where two headings read alike, the source gives them in different places.

How the values were obtained:
[1] = test system: DLD-1; experiment: cells; assay type: cell-based; settings: for IC50: read-out: Basal_Viability ATP DLD-1 summarized IC50
[2] = test system: SW480; experiment: cells; assay type: cell-based; settings: for IC50: read-out: Basal_Viability ATP SW480 summarized IC50
[3] = test system: HCT116; experiment: cells; assay type: cell-based
[4] = test system: HCT116 cells treated with a GSK3β inhibitor; experiment: cells; assay type: cell-based; settings: read-out: GSK3b inh pretreated_Viability ATP HCT116 summarized IC50
[5] = test system: Colo320; experiment: cells; assay type: cell-based; settings: for IC50: read-out: Basal_Viability ATP Colo 320 summarized IC50
[6] = test system: RKO; experiment: cells; assay type: cell-based; settings: for IC50: read-out: Basal_Viability ATP RKO summarized IC50
[7] = test system: SNU-C1; experiment: cells; assay type: cell-based; settings: for IC50: read-out: Basal_Viability ATP SNU-C1 summarized IC50
[8] = test system: endothelial tube formation in co-cultures of ECFCs and ADSCs treated with VEGF; experiment: cells; assay type: cell-based, human; settings: for IC50: read-out: VEGF_ADSC\ECFC Angio CD31 TubeArea summarized IC50
[9] = test system: HeLa cells; experiment: cells; assay type: cell-based;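 as to Hela CellCycMod PI 4N summarized IC50: value tracks stimulation of 4N DNA content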
[10] = test system: ECFC/ADSC co-culture cell nuclei number; settings: for IC50: read-out: VEGF_ADSC\ECFC Angio Hoechst NucArea summarized IC50

| Structure (SMILES) | VEGF_ADSC\ECFC Angio CD31 TubeArea IC50/EC50 [8] | Hela CellCycMod PI 2N IC50/EC50 ([9]; assay number 14, 2N) | Hela CellCycMod PI S Phase IC50/EC50 ([9]; assay number 15, S phase) | Hela CellCycMod PI 4N IC50/EC50 ([9]; assay number 16, 4N) | Hela CellCycMod PI MI IC50/EC50 ([9]; assay number 17, MI) | Hela CellCycMod PI Cell Number IC50/EC50 ([9]; assay number 18, cell number) | VEGF_ADSC\ECFC Angio Hoechst NucArea IC50/EC50 [10] | other results |
| --- | --- | --- | --- | --- | --- | --- | --- | --- |
| C=C(CC)C(=O)c1ccc(OCC(=O)O)c(Cl)c1Cl [NCGC00016260-13] |  |  |  |  |  |  |  | IC50 [1]: 11.9 µM; IC50 [2]: > 6.67 µM; IC50 ([3]; read-out: Basal_Viability ATP HCT116 summarized IC50): > 20 µM; IC50 [4]: 12.2 µM; IC50 [5]: > 20 µM; IC50 [6]: > 6.67 µM; IC50 [7]: > 20 µM |
| CN(Cc1cnc2nc(N)nc(N)c2n1)c1ccc(C(=O)N[C@@H](CCC(=O)O)C(=O)O)cc1 [NCGC00025060-15] |  |  |  |  |  |  |  | IC50 [8]: > 10 µM; IC50 ([9]; assay number 14, 2N, read-out: Hela CellCycMod PI 2N summarized IC50): > 10 µM; IC50 ([9]; assay number 15, S phase, read-out: Hela CellCycMod PI S Phase summarized IC50): > 10 µM; IC50 ([9]; assay number 16, 4N, read-out: Hela CellCycMod PI 4N summarized IC50): > 10 µM; IC50 ([9]; assay number 17, MI, read-out: Hela CellCycMod PI MI summarized IC50): > 10 µM; IC50 ([9]; assay number 18, cell number, read-out: Hela CellCycMod PI Cell Number summarized IC50): > 10 µM; IC50 ([7]; assay number 30, basal): > 20 µM; IC50 [10]: > 10 µM |
| CCOP(=S)(OCC)SCSc1ccc(Cl)cc1 [NCGC00166170-02] |  |  |  |  |  |  |  | IC50 [8]: > 10 µM; IC50 ([1]; assay number 23, basal): > 20 µM; IC50 ([2]; assay number 24, basal): > 20 µM; IC50 ([4]; assay number 26, GSK3b inhibitor pretreated): > 20 µM; IC50 ([5]; assay number 27, basal): > 20 µM; IC50 ([6]; assay number 29, basal): > 20 µM; IC50 ([7]; assay number 30, basal): > 20 µM; IC50 [10]: > 10 µM |
| Nc1nc(F)nc2c1ncn2[C@@H]1O[C@H](CO)[C@@H](O)[C@@H]1O [NCGC00182047-03] | 8.4496 µM | > 10 µM | > 10 µM | > 10 µM | > 10 µM | > 10 µM | > 10 µM |  |
| CC(=O)Nc1ccn(C2COC(COC(=O)c3ccccc3)O2)c(=O)n1 (stereo not shown) [NCGC00183850-01] | 2.3271 µM | > 10 µM | 0.312 µM | > 10 µM | > 10 µM | 0.2813 µM | > 10 µM |  |
| CC(C)OC(=O)OCOP(=O)(CO[C@H](C)Cn1cnc2c(N)ncnc21)OCOC(=O)OC(C)C.O=C(O)/C=C/C(=O)O [NCGC00183876-03] | 3.8408 µM | > 10 µM |  | > 10 µM | > 10 µM | 0.2888 µM | > 10 µM |  |
| Cc1ccc(Nc2nccc(N(C)c3ccc4c(C)n(C)nc4c3)n2)cc1S(N)(=O)=O [NCGC00188865-03] | 0.0465 µM | > 10 µM | > 10 µM | > 10 µM | > 10 µM | > 10 µM | > 10 µM |  |
| c1cnc2cc3c(cc2n1)C1CNCC3C1 [NCGC00247735-02] |  |  |  |  |  |  |  | Basal_Viability ATP DLD-1 IC50/EC50 ([1]; assay number 23, basal): > 6.6667 µM; Basal_Viability ATP SW480 IC50/EC50 ([2]; assay number 24, basal): > 6.6667 µM; Basal_Viability ATP HCT116 IC50/EC50 ([3]; assay number 25, basal): > 20 µM; Basal_Viability ATP Colo 320 IC50/EC50 ([5]; assay number 27, basal): > 20 µM |
| COc1ccc(-n2nc(CCC(=O)N(C)O)cc2-c2ccc(Cl)cc2)cc1 [NCGC00253573-01] |  |  |  |  |  |  |  | Basal_Viability ATP DLD-1 IC50/EC50 [1]: 2.0757 µM; Basal_Viability ATP SW480 IC50/EC50 [2]: 2.8124 µM; Basal_Viability ATP HCT116 IC50/EC50 [3]: 6.5453 µM; Basal_Viability ATP Colo 320 IC50/EC50 [5]: 0.6615 µM; Basal_Viability ATP RKO IC50/EC50 [6]: 4.1076 µM; Basal_Viability ATP SNU-C1 IC50/EC50 [7]: 1.7479 µM |
| CC(C)=CCC/C(C)=C/CC/C(C)=C/C(=O)OCC(=O)[C@@]1(O)CC[C@H]2[C@@H]3CCC4=CC(=O)C=C[C@]4(C)[C@H]3[C@@H](O)C[C@@]21C [NCGC00261967-01] | 3.3384 µM | > 10 µM | > 10 µM | > 10 µM | > 10 µM | 0.05952 µM | > 10 µM |  |
| CCCCCCCCCCCCCCCCNc1ccc(C(=O)O)cc1 [NCGC00261985-01] | 0.3673 µM | > 10 µM |  | > 10 µM | > 10 µM | > 10 µM | > 10 µM |  |
| Nc1nc(=O)n([C@@H]2O[C@H](CO)[C@@H](O)[C@@H]2F)cc1I [NCGC00262963-01] | 3.4717 µM | > 10 µM | > 10 µM | > 10 µM | > 10 µM | 8.504 µM | > 10 µM |  |
| CO[C@@H]1[C@@H](OC)[C@H](C)[C@@](O)(CC(=O)O)O[C@H]1[C@H](C)[C@H]1O[C@@]2(CC[C@@](C)([C@H]3CC[C@@](C)([C@@H]4O[C@@H]([C@H]5O[C@](C)(O)[C@H](C)C[C@@H]5C)C[C@@H]4OC4C[C@H](OC)[C@@H](OC)[C@H](C)O4)O3)O2)C[C@H](O)[C@H]1C.N (stereo partly shown) [NCGC00263563-01] | 0.2517 µM | > 10 µM | > 10 µM | > 10 µM | > 10 µM | 2.751 µM | 2.568 µM |  |
| NCCNc1ccc(NCCN)c2c1C(=O)c1ccncc1C2=O [NCGC00274280-01] | 0.0465 µM | 0.042 µM |  | 0.04829 µM | > 10 µM | 0.04206 µM | > 10 µM |  |
| CCCCCCCCCCCCCCCC[N+](C)(C)Cc1ccccc1.[Cl-] [NCGC00344524-01] | 2.5333 µM | > 10 µM | > 10 µM | > 10 µM | > 10 µM | > 10 µM | > 10 µM |  |
